# According to US7148034B2, “Bioactive whey protein hydrolysate” (New Zealand Dairy Board, priority 2001, dated 2006):
# Ends that are not written are not given here. Peptide text beside a SMILES is read from it.
# Biological target: ACE-I enzyme (Homo sapiens, UniProt P12821)
# Assay: ACE-I activity in vitro using FAPGG as substrate
# Assay type: biochemical
# Details: peptides purified by reverse-phase HPLC from 10 kDa UF permeate of Example 1 hydrolysate
# Method: ACE-I activity (in vitro) in the dried product was determined using FAPGG as a substrate (Product 305–10 ex Sigma Chemical Corporation, St Louis, Mo., USA) according of the method of D W Cushman & H S Cheung (1971). ACE-I activities are expressed as the amount of material (mg/L) needed to reduce the activity of the ACE-I enzyme by 50%.
# Sequence of ACE-I enzyme (P12821 30-1306): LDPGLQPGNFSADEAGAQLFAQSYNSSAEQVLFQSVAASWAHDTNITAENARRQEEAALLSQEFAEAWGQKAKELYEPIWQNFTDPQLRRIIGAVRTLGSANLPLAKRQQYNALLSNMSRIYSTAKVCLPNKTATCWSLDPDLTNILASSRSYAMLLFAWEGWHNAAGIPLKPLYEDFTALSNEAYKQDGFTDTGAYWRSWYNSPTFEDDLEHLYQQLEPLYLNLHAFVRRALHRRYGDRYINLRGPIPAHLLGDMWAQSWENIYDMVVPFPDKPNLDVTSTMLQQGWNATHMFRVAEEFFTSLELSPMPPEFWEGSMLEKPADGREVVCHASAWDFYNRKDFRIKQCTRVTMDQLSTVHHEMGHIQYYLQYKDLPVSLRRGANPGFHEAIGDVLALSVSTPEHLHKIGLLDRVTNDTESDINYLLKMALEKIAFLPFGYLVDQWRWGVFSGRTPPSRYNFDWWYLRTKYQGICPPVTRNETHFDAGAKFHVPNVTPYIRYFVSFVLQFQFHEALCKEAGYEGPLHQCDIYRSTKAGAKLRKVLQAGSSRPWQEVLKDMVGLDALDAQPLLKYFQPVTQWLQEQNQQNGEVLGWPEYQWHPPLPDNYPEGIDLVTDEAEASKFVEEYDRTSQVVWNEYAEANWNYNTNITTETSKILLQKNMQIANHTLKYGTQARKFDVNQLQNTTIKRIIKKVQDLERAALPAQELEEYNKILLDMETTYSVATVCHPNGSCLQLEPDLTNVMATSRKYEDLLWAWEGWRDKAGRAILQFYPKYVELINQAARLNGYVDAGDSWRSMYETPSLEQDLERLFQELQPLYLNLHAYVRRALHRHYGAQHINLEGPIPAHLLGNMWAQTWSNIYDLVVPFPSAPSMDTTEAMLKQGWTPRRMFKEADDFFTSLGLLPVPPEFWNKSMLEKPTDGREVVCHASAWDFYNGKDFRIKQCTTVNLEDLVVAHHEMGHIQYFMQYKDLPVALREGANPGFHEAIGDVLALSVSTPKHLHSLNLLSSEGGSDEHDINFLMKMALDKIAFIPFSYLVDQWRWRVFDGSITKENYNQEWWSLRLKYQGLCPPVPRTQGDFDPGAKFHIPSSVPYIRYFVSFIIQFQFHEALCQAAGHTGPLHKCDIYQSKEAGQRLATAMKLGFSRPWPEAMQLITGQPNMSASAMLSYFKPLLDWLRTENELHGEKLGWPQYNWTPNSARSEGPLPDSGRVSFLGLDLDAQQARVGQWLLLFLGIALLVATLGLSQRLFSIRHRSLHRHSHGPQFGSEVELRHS
row,IC50 [µM],Compound
1,33.2,"LIVTQ [Peptide 4, LIVTQ]"
2,5.36,LKGYGGVSLPEW [Peptide 7]
3,68.8,"CSCC[C@H](N)C(=O)N[C@@H](CCCCN)C(=O)NCC(=O)O [Peptide 2, MKG] (H-Met-Lys-Gly-OH; N-terminus and C-terminus assumed)"
4,40.5,"ALPMH [Peptide 3, ALPMH]"
5,11,"VSLPEW [Peptide 5, VSLPEW]"
6,80.5,"C[C@H](NC(=O)[C@@H](N)CO)C(=O)N1CCC[C@H]1C(=O)O [Peptide 1, SAP] (H-Ser-Ala-Pro-OH; N-terminus and C-terminus assumed)"

# Test system: Spontaneously hypertensive rats (SHRs)
# Assay: Acute short term effect on systolic blood pressure (tail cuff)
# Assay type: in vivo, rat
# Details: 165 mg/kg body weight, oral in jelly, p=0.0021 after 4 hours, p<0.0001 after 8 hours
# Method: Blood pressure was measured using a tail cuff monitor and a purpose designed apparatus for measuring the blood pressure of small animals [IITC Inc, 239 Victory Blvd., Woodland Hills, Calif. 91367, USA]. Each time point was the average of 3–5 readings taken within approximately 5–10 minutes.
# Spontaneously hypertensive rats (SHRs) were sourced from the Animal Resource Centre, Western Australia.
# The test substances were given to each rat on a per kg body weight basis unless otherwise stated. The individual dose for each animal was incorporated into a flavoured jelly, which was readily consumed by the animals.
# The three samples evaluated for short tern blood pressure response were a mildly hydrolysed whey protein concentrate (FIG. 2), a mildly hydrolysed whey protein isolate (see FIG. 3) and a synthesised peptide from. Table 1, namely MKG (SEQ ID NO: 2) (see FIG. 4). The WPC was prepared according to the methodology set out in example 1 of WO 99/65326.
# Acute or short term effects of agents were determined by treating adult SHRs with the agent and then studying their blood pressure responses over the following hours. The study detects if an agent lowers blood pressure that is already elevated.
row,Compound,Reduction in systolic blood pressure compared to control rats
1,"CSCC[C@H](N)C(=O)N[C@@H](CCCCN)C(=O)NCC(=O)O [Peptide 2, MKG] (H-Met-Lys-Gly-OH; N-terminus and C-terminus assumed)",much greater reduction in blood pressure
